Experimental data published in patent US20090018136A1, “METHODS AND COMPOSITIONS FOR THE TREATMENT OF VASCULAR DISEASE” (priority 2005, published 2009).

Assays:
[1] = test system: coronary blood flow velocity; conditions: BH4 infused during angiography, patients with endothelial dysfunction; cited from earlier work
[2] = test system: venous grafts and arteries; conditions: acute BH4; diabetic subjects undergoing coronary artery bypass graft surgery; cited from earlier work
hypertensive patients = test: Study 2: dose-response of oral BH4 on blood pressure and heart rate, after 2-week vitamin C run-in; format: in vivo, human
Method: Prior studies have used parenteral infusion of BH4 or a single oral dose; thus it was not known whether long-term oral BH4 over a period of days to weeks would result in a sustained improvement in endothelial dysfunction. […] Two studies were conducted to investigate the duration of action of oral BH4 and the response of hypertensive subjects to different doses of BH4. […] Patients were continued on their current anti-hypertensive therapy which remained unchanged. […] BH4 powder was obtained from Schircks Laboratories (Jona, Switzerland). BH4 when administered with vitamin C was compounded with vitamin C at a ratio of 1 mg of vitamin C/1 mg BH4 into appropriate sized capsules. Subjects were advised to keep the pills in a freezer or refrigerator. For both study 1 and study 2, the primary end point after statistical analysis was a reduction of systolic, mean and diastolic BP during BH4 therapy. Secondary end points included improvement of endothelial function as FMD. Linear mixed effects models for repeated measures data were used to analyze change in BP from baseline to end of treatment period and differences in change between 100 mg and 200 mg dose groups. A quadratic term for week was included in the model to account for non-linear trends over the treatment period. Dose, week and week squared were the main effect terms in the model; dose by week and dose by week squared were the interaction terms in the model. Significant interaction terms indicate a difference in the pattern of change between the two dose groups. FMD data was analyzed using the two-tailed student t-test. […] Of the 20 subjects who qualified for participation, 4 were excluded during the run-in phase because of inability to return for follow-up appointments. There were 6 male subjects, mean age 59.5±8.3 years. Eight subjects received 200 mg b.i.d (twice daily) of oral BH4 and 8 received 100 mg b.i.d. of oral BH4. […] Because BH4 was compounded with vitamin C in a 1:1 ratio, all subjects received vitamin C, at their assigned BH4 dose, twice a day during the first 2-week period. After this 2-week run-in period, subjects received BH4 only at their assigned dosage for the next 4 weeks. Weekly heart rate and BP measurements were made during the run-in period and treatment period. Mean blood pressure was calculated as: (SBP+2×DBP)/3. BH4 was then stopped and follow-up was performed at 1 and 4 weeks after discontinuation where BP and heart rate measurements were made. Routine chemistries and LFT's were drawn prior to initiation of medication, at the end of BH4 therapy and one month after discontinuation of BH4.

beagles = conditions: dog, in vivo, po, 100 mg/kg
Method: This study evaluated the cardiovascular effects of high doses of 6R-BH4 in combination with the PDE5 inhibitor sildenafil citrate in vivo. Eight male research nonnaïve and naïve purebred beagles were dosed in a double Latin square crossover design as described in the following table. All animals were dosed by oral gavage. Test articles were administered at a dose volume of 5 mL/kg (for a total volume of 10 mL/kg for the combination dose); control animals were dosed at a dose volume of 10 mL/kg. 6R-BH4 (sapropterin dihydrochloride) provided as 300 mg tablets (100 mg active 6R-BH4/tablet) stored at room temperature with desiccant.
At initiation of treatment, the animals were approximately 7 to 10 months old, and their body weights prior to dosing ranged from 7.8 to 12.0 kg.
At least 2 weeks prior to initiation of treatment, animals were fasted overnight, anesthetized, and an electrocardiogram (ECG) and blood pressure transmitter were implanted into the abdomen and sutured to the abdominal wall. The blood pressure catheter was placed in an artery and advanced to the abdominal aorta. Animals were checked twice daily (a.m. and p.m.) for mortality, abnormalities, and signs of pain and distress. Additional findings were recorded as observed.
Detailed observations were taken three times during the predose phase (including the day before dosing) and on Days 3 and 10 of the dosing phase. For each dosing day, ECG and pressure measurements were recorded for at least 90 minutes prior to dosing, continuously for at least 8 hours after dosing, and then for one period of at least 15 minutes in duration each hour through at least 24 hours postdose. Blood pressure measurements included systolic, diastolic, and mean arterial pressures and pulse pressure (systolic-diastolic). […]
Quantitative evaluation of ECG measurements, including RR interval, QT, and rate-corrected QT (QTc, using Fridericia's method), were done.
Positive inotropic effects (+dP/dtmax) and heart rate were calculated from a left ventricular pressure signal predose and approximately 2, 4, 8, 12, and 24 hours postdose. […]

[3] = test system: patients with poorly controlled hypertension; conditions: cited from earlier work

Structure (SMILES): C[C@H](O)[C@H](O)[C@H]1CNc2nc(N)[nH]c(=O)c2N1 [BH4, tetrahydrobiopterin]
- abnormal vasoconstriction to acetylcholine [1]: prevented
- vascular function in venous grafts and arteries [2]: restores
- change in BP (hypertensive patients; Study 2, 100 mg b.i.d. of BH4): No statistically significant change
- decrease in systolic BP (hypertensive patients; Study 2, 200 mg b.i.d. oral BH4, 4 weeks, p=0.03): significant decrease
- decrease in mean BP (hypertensive patients; Study 2, 200 mg b.i.d. oral BH4, 4 weeks, p=0.04 by linear trend analysis): significant decrease
- BP after discontinuation of BH4 (hypertensive patients; Study 2, 200 mg b.i.d., 4 weeks after discontinuation): returned to baseline levels
- BP after termination of therapy (hypertensive patients; Study 2, 200 mg b.i.d., a week after termination): remained lower
- systolic BP mean lowering at nadir (hypertensive patients; Study 2, 200 mg b.i.d., after 3 weeks, p=0.04): 16 mmHg
- Mean BP after one week (hypertensive patients; Study 2, 200 mg b.i.d., p=0.02): significantly lower
- decrease in diastolic BP (hypertensive patients; Study 2, 200 mg b.i.d., p=0.08): did not reach statistical significance
- alteration in heart rate with BH4 (hypertensive patients; Study 2, either group, 100 mg or 200 mg b.i.d.): no significant alteration
- dose at which the BP-lowering effect was observed (hypertensive patients; oral BH4, free of any changes in heart rate): ≥ 200 mg b.i.d.
- time until reduction in BP was evident (hypertensive patients; oral BH4 therapy): ≤ 1 week
- effect on any of the cardiovascular parameters measured (beagles): No effect
- blood pressure after cessation of therapy ([3]; 6 weeks after cessation): returned to baseline values
- FMD following withdrawal ([3]; after 1 week following withdrawal): returned to baseline
- FMD ([3]; after 8 weeks of oral BH4 (5 mg/kg/d, 10 mg/kg/d), eight patients): increased significantly
- treatment time after which blood pressure reduction was significant ([3]; human, in vivo): 3 weeks
- systolic and diastolic pressures ([3]; oral BH4 5 or 10 mg/kg/d over 8 weeks): significantly reduced
